# Measured values published in patent US12161738B2, “Deodorant compositions” (The Procter & Gamble Company, priority 2019, dated 2024).
# Assays:
# [1] = pH of various magnesium salts in a water solution; type: physicochemical; details: 12% in water
# Protocol: The pH of magnesium carbonate, partially carbonated magnesium hydroxide, magnesium hydroxide and magnesium oxide were taken in a water solution. The pH values were recorded as follows in Table 4.
# [2] = test system: Corynebacterium mucofaciens (clinical isolate); test: Tier 1 Anaerobic MIC Assay; type: cell-based; details: raw material, BHI with 1% Tween 80, 37° C. overnight, O.D. 600
# Protocol: (§1) Tier 1 Anaerobic MIC Assay
# (§2) The data in Table 1 above was generated with the following test method. The purpose of this assay is to determine if a compound or formulation has an antimicrobial effect in vitro.
# (§3) Procedure: (All procedures performed in anaerobic chamber except where noted)
# (§4) Incubator at 37° C.; 20-200 ul 12 channel pipette; 5-50 ul 12 channel pipette; 1250 ul 8 channel Thermo Scientific Matrix pipette; 96 well plate shaker (located in incubator); Beckman Coulter deep well cap mat #267005; Beckman Coulter deep 96 well plates #267007; Falcon 96 well tissue culture plates #353072; Vortexer; Culture tubes/caps Disposable sterile gloves; Sterile petri dishes; Standard microbiological lab equipment (sterile pipettes, syringes, tips, loops, etc.); Glass bottles/flasks for media; Autoclave; Parafilm; Spectrophotometer.
# (§5) BHI agar supplemented with 1% Tween 80
# (§6) BHI media supplemented with 1% Tween 80
# Corynebacterium mucofaciens (clinical isolate)
# (§7) Prior to testing streak organisms for isolation on BHI with 1% Tween 80 plates, wrap with parafilm and place in 37° C. incubator. When isolated colonies appear remove one representative colony from each plate and place each in 5 ml of BHI with 1% Tween 80 media. […]
# (§8) In row A of a 96 deep well plate pipette 180 ul of sterile BHI with 1% Tween 80 as a negative growth control. […] The next day read the O.D. 600 on a plate reader. […]
# [3] = test system: Staphylococcus epidermidis (clinical isolate); test: Tier 1 Anaerobic MIC Assay; type: cell-based; details: raw material, BHI with 1% Tween 80, 37° C. overnight, O.D. 600
# Protocol: as §1, §2, §3, §4, §5, §6
# Staphylococcus epidermidis (clinical isolate)
# as §7, §8
Compound,pH in water 12% Solution [1],pH in water 12% Solution ([1]; listed as Magnesium oxide),"microbial inhibition concentration (MIC), C. mucofaciens [2] [ppm]","microbial inhibition concentration (MIC), S. epidermidis [3] [ppm]"
O=C([O-])[O-].[Mg+2] [Magnesium Carbonate],9.6,,,
[Mg+2].[OH-].[OH-] [Magnesium Hydroxide],10,,,
[O]=[Mg] [Magnesium Oxide],10.8,highest pH observed,,
Cc1cc(CC(C)CC(C)(C)C)n(O)c(=O)c1.NCCO (stereo not drawn) [piroctone olamine],,,<5,10
